Measurements as given in the NIST ThermoML archive (doi:10.1016/j.jct.2016.07.012).
Several values for one entry are separate records, joined by “and”; a condition that tells them apart may be missing. Equal values may be shown once. Numbers after ± are expanded uncertainties.

Experiment: molar heat capacity at constant pressure
Settings: 101.33 kPa, Metastable crystal, Small (less than 1 g) adiabatic calorimetry

CCCCn1cc[n+](C)c1.F[P-](F)(F)(F)(F)F [1-butyl-3-methylimidazolium hexafluorophosphate]
Settings	molar heat capacity at constant pressure
5.14 K	2.42 ± 0.07 J/K/mol
5.39 K	2.76 ± 0.08 J/K/mol and 1.64 ± 0.05 J/K/mol
5.67 K	1.92 ± 0.06 J/K/mol
5.74 K	3.28 ± 0.09 J/K/mol
6.01 K	2.31 ± 0.07 J/K/mol
6.1 K	3.85 ± 0.1 J/K/mol
6.43 K	2.83 ± 0.08 J/K/mol
6.54 K	4.59 ± 0.11 J/K/mol
6.93 K	3.51 ± 0.09 J/K/mol
7.06 K	5.54 ± 0.13 J/K/mol
7.43 K	4.3 ± 0.1 J/K/mol
7.59 K	6.57 ± 0.15 J/K/mol
7.94 K	5.16 ± 0.12 J/K/mol
8.12 K	7.67 ± 0.17 J/K/mol
8.46 K	6.12 ± 0.14 J/K/mol
8.66 K	8.84 ± 0.19 J/K/mol
8.98 K	7.15 ± 0.16 J/K/mol
9.2 K	10.06 ± 0.21 J/K/mol
9.51 K	8.25 ± 0.17 J/K/mol
9.75 K	11.33 ± 0.23 J/K/mol
10.05 K	9.41 ± 0.19 J/K/mol
10.36 K	12.83 ± 0.24 J/K/mol
10.66 K	10.82 ± 0.21 J/K/mol
11.05 K	14.53 ± 0.27 J/K/mol
11.34 K	12.43 ± 0.23 J/K/mol
11.75 K	16.3 ± 0.29 J/K/mol
12.02 K	14.11 ± 0.24 J/K/mol
12.45 K	18.11 ± 0.3 J/K/mol
12.71 K	15.86 ± 0.27 J/K/mol
13.16 K	19.96 ± 0.32 J/K/mol
13.41 K	17.66 ± 0.28 J/K/mol
13.87 K	21.84 ± 0.34 J/K/mol
14.11 K	19.5 ± 0.29 J/K/mol
14.59 K	23.69 ± 0.35 J/K/mol
14.82 K	21.33 ± 0.3 J/K/mol
15.31 K	25.67 ± 0.36 J/K/mol
15.64 K	23.71 ± 0.33 J/K/mol
16.14 K	28.07 ± 0.37 J/K/mol
16.58 K	26.38 ± 0.34 J/K/mol
17.09 K	30.62 ± 0.37 J/K/mol
17.53 K	28.96 ± 0.35 J/K/mol
18.04 K	33.1 ± 0.37 J/K/mol
18.47 K	31.53 ± 0.35 J/K/mol
18.99 K	35.56 ± 0.37 J/K/mol
19.42 K	34.1 ± 0.36 J/K/mol
19.94 K	37.99 ± 0.37 J/K/mol
20.38 K	36.68 ± 0.36 J/K/mol
21.2 K	41.25 ± 0.39 J/K/mol
21.63 K	40.09 ± 0.38 J/K/mol
22.78 K	45.26 ± 0.41 J/K/mol
23.2 K	44.28 ± 0.4 J/K/mol
24.36 K	49.25 ± 0.42 J/K/mol
24.78 K	48.5 ± 0.41 J/K/mol
25.94 K	53.1 ± 0.43 J/K/mol
26.36 K	52.53 ± 0.42 J/K/mol
27.42 K	56.44 ± 0.44 J/K/mol
27.74 K	55.76 ± 0.43 J/K/mol
28.99 K	60 ± 0.44 J/K/mol
29.16 K	59.25 ± 0.44 J/K/mol
30.59 K	63.64 ± 0.39 J/K/mol
30.76 K	63.06 ± 0.39 J/K/mol
32.36 K	67.48 ± 0.41 J/K/mol
32.52 K	67.01 ± 0.41 J/K/mol
34.28 K	71.38 ± 0.43 J/K/mol
34.44 K	71.11 ± 0.43 J/K/mol
36.21 K	75.09 ± 0.45 J/K/mol
36.36 K	74.97 ± 0.45 J/K/mol
38.14 K	78.66 ± 0.47 J/K/mol
38.29 K	78.65 ± 0.47 J/K/mol
40.07 K	82.09 ± 0.49 J/K/mol
40.21 K	82.2 ± 0.49 J/K/mol
42.09 K	85.6 ± 0.51 J/K/mol
42.23 K	85.83 ± 0.51 J/K/mol
44.21 K	89.2 ± 0.53 J/K/mol
44.36 K	89.57 ± 0.53 J/K/mol
46.33 K	92.75 ± 0.55 J/K/mol
46.49 K	93.18 ± 0.55 J/K/mol
48.45 K	96.18 ± 0.56 J/K/mol
48.62 K	96.7 ± 0.57 J/K/mol
50.58 K	99.47 ± 0.58 J/K/mol
50.75 K	100 ± 0.6 J/K/mol
52.71 K	102.6 ± 0.6 J/K/mol
52.88 K	103.3 ± 0.6 J/K/mol
54.84 K	105.6 ± 0.6 J/K/mol
55.01 K	106.3 ± 0.6 J/K/mol
56.97 K	108.5 ± 0.6 J/K/mol
57.15 K	109.3 ± 0.6 J/K/mol
59.11 K	111.3 ± 0.6 J/K/mol
59.29 K	112.2 ± 0.7 J/K/mol
61.24 K	114 ± 0.7 J/K/mol
61.43 K	115 ± 0.7 J/K/mol
63.37 K	116.6 ± 0.7 J/K/mol
63.57 K	117.8 ± 0.7 J/K/mol
65.51 K	119.2 ± 0.7 J/K/mol
65.71 K	120.5 ± 0.7 J/K/mol
67.65 K	121.8 ± 0.7 J/K/mol
67.86 K	123.3 ± 0.7 J/K/mol
69.79 K	124.4 ± 0.7 J/K/mol
70.01 K	126 ± 0.7 J/K/mol
72.04 K	127 ± 0.7 J/K/mol
72.26 K	128.8 ± 0.7 J/K/mol
74.39 K	129.8 ± 0.7 J/K/mol
74.61 K	131.7 ± 0.8 J/K/mol
76.74 K	132.5 ± 0.8 J/K/mol
76.97 K	134.6 ± 0.8 J/K/mol
78.34 K	134.5 ± 0.8 J/K/mol
78.72 K	137.3 ± 0.8 J/K/mol
79.09 K	135.1 ± 0.8 J/K/mol
79.34 K	137.4 ± 0.8 J/K/mol
80.13 K	136.3 ± 0.8 J/K/mol
80.5 K	139.2 ± 0.8 J/K/mol
81.45 K	137.7 ± 0.8 J/K/mol
81.7 K	140.2 ± 0.8 J/K/mol
81.8 K	138.1 ± 0.8 J/K/mol
82.15 K	141.2 ± 0.8 J/K/mol
83.48 K	139.8 ± 0.8 J/K/mol
83.81 K	140.2 ± 0.8 J/K/mol
83.82 K	143 ± 0.8 J/K/mol
84.07 K	142.9 ± 0.8 J/K/mol
85.17 K	141.6 ± 0.8 J/K/mol
85.49 K	145 ± 0.8 J/K/mol
86.86 K	143.5 ± 0.8 J/K/mol
87.17 K	146.9 ± 0.8 J/K/mol
88.56 K	145.3 ± 0.8 J/K/mol
88.85 K	148.6 ± 0.8 J/K/mol
90.27 K	147.2 ± 0.8 J/K/mol
90.55 K	150.8 ± 0.8 J/K/mol
91.99 K	149 ± 0.8 J/K/mol
92.25 K	152.7 ± 0.8 J/K/mol
93.71 K	150.9 ± 0.8 J/K/mol
93.96 K	154.7 ± 0.8 J/K/mol
95.45 K	152.7 ± 0.8 J/K/mol
95.67 K	156.7 ± 0.9 J/K/mol
97.19 K	154.7 ± 0.8 J/K/mol
97.39 K	159.1 ± 0.9 J/K/mol
98.94 K	156.5 ± 0.9 J/K/mol
99.12 K	160.7 ± 0.9 J/K/mol
100.69 K	158.4 ± 0.9 J/K/mol
100.85 K	162.3 ± 0.9 J/K/mol
102.5 K	160.3 ± 0.9 J/K/mol
102.65 K	164.4 ± 0.9 J/K/mol
104.38 K	162.4 ± 0.9 J/K/mol
104.51 K	166.4 ± 0.9 J/K/mol
106.27 K	164.4 ± 0.9 J/K/mol
106.38 K	168.5 ± 0.9 J/K/mol
108.17 K	166.5 ± 0.9 J/K/mol
108.26 K	170.5 ± 0.9 J/K/mol
110.06 K	168.6 ± 0.9 J/K/mol
110.13 K	172.5 ± 0.9 J/K/mol
111.96 K	170.7 ± 0.9 J/K/mol
112.01 K	174.6 ± 0.9 J/K/mol
113.86 K	172.8 ± 0.9 J/K/mol
113.9 K	176.6 ± 1 J/K/mol
115.77 K	174.9 ± 0.9 J/K/mol
115.78 K	178.7 ± 1 J/K/mol
117.67 K	180.7 ± 1 J/K/mol
117.68 K	177.1 ± 1 J/K/mol
119.56 K	182.8 ± 1 J/K/mol
119.59 K	179.2 ± 1 J/K/mol
121.46 K	184.9 ± 1 J/K/mol
121.5 K	181.4 ± 1 J/K/mol
123.35 K	186.9 ± 1 J/K/mol
123.41 K	183.7 ± 1 J/K/mol
125.25 K	189.1 ± 1 J/K/mol
